From patent US11932885B2, “Use of glutamine synthetase for treating hyperammonemia” (Thoeris GmbH, priority 2017, dated 2024)

Columns and labels:
BDL rats [1] = experiment: Ammonia blood levels in BDL rats; type: in vivo; details: BDL rats on hyperammonemic diet
Protocol: All experiments were performed in accordance with the Animals (Scientific Procedures) Act of 1986, which was revised according to the European Directive2010/63/EU. All animals received humane care according to the criteria outlined in the Guide for the Care and Use of Laboratory Animals (National Institutes of Health publication 86-23; revised 1985). All the animals used in these experiments were Male Sprague-Dawley rats (body weight, 250 g at the beginning of the experiments) were obtained from Charles River Laboratories (Kent, UK) and divided into 5 groups: bile duct ligated animals+ammonia+saline serum (BDL+HA+SS, n=6), bile duct ligated animals+ammonia+sodium phenylacetate (BDL+HA+SP, n=6), bile duct ligated animals+ammonia+sodium phenylacetate+glutamine synthetase (BDL+HA+SP+GS, n=5), bile duct ligated animals+ammonia+glutamine synthetase (BDL+HA+GS, n=6), sham-operated animals+glutamine synthetase (SHAM+GS, n=5). Treatment comprising SP and GS may be referred to as “COMBO”. […]
Plasma samples were collected from the leg vein at different timepoints in all groups. The timepoints were counted after the treatment with glutamine synthetase as follows: 6 hours, 24 hours, 48 hours and 5 days. […]

BDL rats [2] = experiment: Brain oedema in the prefrontal cortex of BDL rats (dry weight technique); type: in vivo; details: versus control without treatment
Protocol: (§1) All experiments were performed in accordance with the Animals (Scientific Procedures) Act of 1986, which was revised according to the European Directive2010/63/EU. All animals received humane care according to the criteria outlined in the Guide for the Care and Use of Laboratory Animals (National Institutes of Health publication 86-23; revised 1985). All the animals used in these experiments were Male Sprague-Dawley rats (body weight, 250 g at the beginning of the experiments) were obtained from Charles River Laboratories (Kent, UK) and divided into 5 groups: bile duct ligated animals+ammonia+saline serum (BDL+HA+SS, n=6), bile duct ligated animals+ammonia+sodium phenylacetate (BDL+HA+SP, n=6), bile duct ligated animals+ammonia+sodium phenylacetate+glutamine synthetase (BDL+HA+SP+GS, n=5), bile duct ligated animals+ammonia+glutamine synthetase (BDL+HA+GS, n=6), sham-operated animals+glutamine synthetase (SHAM+GS, n=5). Treatment comprising SP and GS may be referred to as “COMBO”.
This was measured using the dry weight technique as described previously. […] The dry weight was determined after Eppendorf's loaded with individual brain samples were dried in an oven at 60° C. for 7 days. Tissue water content was then calculated as % H2O=(1-dry wt/wet wt)×100%.

BDL rats [3] = experiment: RotaRod-Accelerod test in BDL rats; type: in vivo
Protocol: as §1
This test of motor performance consists of a motor-driven rotating rod that enables us to assess motor coordination and resistance to fatigue (Jones and Roberts 1968). […] Latency to fall off the rod and the actual rotation speed were recorded in the pre- and post-treatment conditions for all groups after 1 hour treatment.

[4] = mouse, in vivo, sc, 2.5 mg/kg
Protocol: The ELISA was conducted according to the protocol outlined by the manufacturer (Abcam PEG ELISA kit, ab133065). […] N=2 animals in each group.

Row | Compound | ammonia levels in the blood (BDL rats [1]) | brain oedema in the prefrontal cortex (BDL rats [2]) | rotarod grip test performance (BDL rats [3]) | plasma level (PEG ELISA) [4]
1 | O=C([O-])Cc1ccccc1.[Na+] [SP, sodium phenylacetate] | significant reduction of ammonia levels in the blood | did not statistically significantly reduce the swelling | did not lead to stastically significant effects | –
2 | wt GS: Non-conjugated human glutamine synthetase with N-terminal His-tag and GGGGS linker (SEQ ID NO: 4), expressed in E. coli | – | – | – | very low or undetectable levels
